Experimental data taken from doi:10.1101/2024.08.19.608619, “Discovery of potent SARS-CoV-2 nsp3 macrodomain inhibitors uncovers lack of translation to cellular antiviral response” (bioRxiv, 2024).
pIC50: −log10 of the molar value.

Tests used:
[1] = molecular target: T1, KOR receptor (Homo sapiens, UniProt P41145); assay: Eurofins CEREP panel, KOR; assay type: binding; settings: for perc_inhibition (% inhibition of the binding of a ligand specific for each target) / inhibition at 10 µM: kappa (h) (KOP) (agonist radioligand), test compound concentration 10 uM; for inhibition at 10 µM: read-out: perc_inhibition (% inhibition of the binding of a ligand specific for each target)
T1 construct: purchased Eurofins Cerep (SafetyScreen44), recognised from the panel format

[2] = molecular target: T2, alpha1A (h) (Homo sapiens, UniProt P35348); assay: In vitro CEREP profiling, alpha1A (h) (antagonist radioligand); assay type: binding; settings: test compound 10 uM; for inhibition at 10 µM: read-out: perc_inhibition (% inhibition of the binding of a ligand specific for each target)
T2 construct: purchased Eurofins Cerep (SafetyScreen44), recognised from the panel format
T2 sequence (P35348 1-466): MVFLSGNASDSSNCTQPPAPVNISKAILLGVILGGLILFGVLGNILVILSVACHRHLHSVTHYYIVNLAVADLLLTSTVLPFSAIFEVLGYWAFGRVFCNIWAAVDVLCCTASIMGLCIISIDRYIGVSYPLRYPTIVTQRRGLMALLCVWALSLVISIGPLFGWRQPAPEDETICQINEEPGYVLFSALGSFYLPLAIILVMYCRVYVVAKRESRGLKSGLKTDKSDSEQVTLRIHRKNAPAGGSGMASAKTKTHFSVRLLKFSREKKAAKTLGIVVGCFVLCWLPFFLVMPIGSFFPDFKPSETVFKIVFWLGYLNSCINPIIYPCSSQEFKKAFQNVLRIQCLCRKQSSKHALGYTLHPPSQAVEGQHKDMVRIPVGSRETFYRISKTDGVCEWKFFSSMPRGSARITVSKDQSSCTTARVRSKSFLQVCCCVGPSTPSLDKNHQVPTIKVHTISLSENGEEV
From the text: (§1) Supplement media-1.zip/Safety_Panel_Profile.csv, table | column: perc_inhibition

[3] = molecular target: T3, COX2(h) (Homo sapiens, UniProt P35354); assay: In vitro CEREP profiling, COX2(h); assay type: biochemical; settings: test compound concentration 10 uM, Enzyme and Cell-based assays; for inhibition at 10 µM: read-out: perc_inhibition: % inhibition of control enzyme activity, COX2(h)
T3 construct: purchased Eurofins Cerep (SafetyScreen44), recognised from the panel format
T3 sequence (P35354 18-604): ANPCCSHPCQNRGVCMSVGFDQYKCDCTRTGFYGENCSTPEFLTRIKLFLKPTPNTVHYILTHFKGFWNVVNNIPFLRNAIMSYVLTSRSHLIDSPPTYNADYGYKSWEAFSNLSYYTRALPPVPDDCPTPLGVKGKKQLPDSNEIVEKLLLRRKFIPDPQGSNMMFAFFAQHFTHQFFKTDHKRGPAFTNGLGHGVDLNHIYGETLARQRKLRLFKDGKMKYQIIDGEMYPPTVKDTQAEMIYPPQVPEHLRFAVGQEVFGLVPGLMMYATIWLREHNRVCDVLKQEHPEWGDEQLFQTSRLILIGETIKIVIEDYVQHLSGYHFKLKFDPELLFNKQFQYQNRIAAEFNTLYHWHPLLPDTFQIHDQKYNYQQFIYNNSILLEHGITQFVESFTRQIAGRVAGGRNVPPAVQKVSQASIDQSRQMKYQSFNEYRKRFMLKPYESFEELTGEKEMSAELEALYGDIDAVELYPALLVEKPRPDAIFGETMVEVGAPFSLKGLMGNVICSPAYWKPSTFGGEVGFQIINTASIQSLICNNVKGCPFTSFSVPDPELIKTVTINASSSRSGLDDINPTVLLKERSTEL
From the text: as §1

[4] = molecular target: T4, M1 (h) (Homo sapiens, UniProt P11229); assay: In vitro CEREP profiling, M1 (h) (antagonist radioligand); assay type: binding; settings: test compound concentration 10 uM; for inhibition at 10 µM: read-out: perc_inhibition (% inhibition of the binding of a ligand specific for each target)
T4 construct: purchased Eurofins Cerep (SafetyScreen44), recognised from the panel format
T4 sequence (P11229 1-460): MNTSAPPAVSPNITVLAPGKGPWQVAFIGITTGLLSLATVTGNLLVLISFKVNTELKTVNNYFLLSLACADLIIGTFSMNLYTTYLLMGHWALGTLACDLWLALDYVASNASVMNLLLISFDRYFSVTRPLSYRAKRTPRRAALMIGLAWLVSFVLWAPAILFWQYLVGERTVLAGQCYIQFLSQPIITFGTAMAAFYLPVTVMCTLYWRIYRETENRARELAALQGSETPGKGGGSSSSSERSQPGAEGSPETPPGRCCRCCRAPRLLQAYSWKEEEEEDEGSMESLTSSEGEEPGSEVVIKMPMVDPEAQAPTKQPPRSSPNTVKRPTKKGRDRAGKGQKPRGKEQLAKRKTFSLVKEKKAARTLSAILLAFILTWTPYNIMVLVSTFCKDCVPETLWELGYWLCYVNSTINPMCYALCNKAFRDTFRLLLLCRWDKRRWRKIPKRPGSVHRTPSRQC
From the text: as §1

[5] = molecular target: hERG (Homo sapiens, UniProt Q12809); assay: In vitro hERG cardiotoxocity; settings: for pIC50: top test concentration 30 uM
From the text: Supplement media-1.zip/Cardiotoxicity.csv, table | column: ic50; perc_inhibition_top_conc

[6] = molecular target: T5, 5-HT1A (h) (Homo sapiens, UniProt P08908); assay: In vitro CEREP profiling, 5-HT1A (h) (agonist radioligand); assay type: binding; settings: test compound concentration 10 uM; for inhibition at 10 µM: read-out: perc_inhibition (% inhibition of the binding of a ligand specific for each target)
T5 construct: purchased Eurofins Cerep (SafetyScreen44), recognised from the panel format
T5 sequence (P08908 1-422): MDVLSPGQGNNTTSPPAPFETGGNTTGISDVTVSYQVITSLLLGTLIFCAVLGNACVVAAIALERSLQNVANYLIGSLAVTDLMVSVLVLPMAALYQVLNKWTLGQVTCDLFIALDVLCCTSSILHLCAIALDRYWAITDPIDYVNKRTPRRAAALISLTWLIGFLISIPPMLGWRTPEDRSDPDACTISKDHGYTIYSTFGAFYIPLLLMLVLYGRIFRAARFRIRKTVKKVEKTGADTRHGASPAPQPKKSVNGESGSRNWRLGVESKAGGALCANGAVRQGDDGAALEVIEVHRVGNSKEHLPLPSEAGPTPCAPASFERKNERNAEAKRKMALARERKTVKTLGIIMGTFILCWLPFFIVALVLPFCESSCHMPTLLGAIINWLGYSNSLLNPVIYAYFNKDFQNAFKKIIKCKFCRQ
From the text: as §1

[7] = at top test concentration 30 uM

Chain of hERG (Q12809 whole entry): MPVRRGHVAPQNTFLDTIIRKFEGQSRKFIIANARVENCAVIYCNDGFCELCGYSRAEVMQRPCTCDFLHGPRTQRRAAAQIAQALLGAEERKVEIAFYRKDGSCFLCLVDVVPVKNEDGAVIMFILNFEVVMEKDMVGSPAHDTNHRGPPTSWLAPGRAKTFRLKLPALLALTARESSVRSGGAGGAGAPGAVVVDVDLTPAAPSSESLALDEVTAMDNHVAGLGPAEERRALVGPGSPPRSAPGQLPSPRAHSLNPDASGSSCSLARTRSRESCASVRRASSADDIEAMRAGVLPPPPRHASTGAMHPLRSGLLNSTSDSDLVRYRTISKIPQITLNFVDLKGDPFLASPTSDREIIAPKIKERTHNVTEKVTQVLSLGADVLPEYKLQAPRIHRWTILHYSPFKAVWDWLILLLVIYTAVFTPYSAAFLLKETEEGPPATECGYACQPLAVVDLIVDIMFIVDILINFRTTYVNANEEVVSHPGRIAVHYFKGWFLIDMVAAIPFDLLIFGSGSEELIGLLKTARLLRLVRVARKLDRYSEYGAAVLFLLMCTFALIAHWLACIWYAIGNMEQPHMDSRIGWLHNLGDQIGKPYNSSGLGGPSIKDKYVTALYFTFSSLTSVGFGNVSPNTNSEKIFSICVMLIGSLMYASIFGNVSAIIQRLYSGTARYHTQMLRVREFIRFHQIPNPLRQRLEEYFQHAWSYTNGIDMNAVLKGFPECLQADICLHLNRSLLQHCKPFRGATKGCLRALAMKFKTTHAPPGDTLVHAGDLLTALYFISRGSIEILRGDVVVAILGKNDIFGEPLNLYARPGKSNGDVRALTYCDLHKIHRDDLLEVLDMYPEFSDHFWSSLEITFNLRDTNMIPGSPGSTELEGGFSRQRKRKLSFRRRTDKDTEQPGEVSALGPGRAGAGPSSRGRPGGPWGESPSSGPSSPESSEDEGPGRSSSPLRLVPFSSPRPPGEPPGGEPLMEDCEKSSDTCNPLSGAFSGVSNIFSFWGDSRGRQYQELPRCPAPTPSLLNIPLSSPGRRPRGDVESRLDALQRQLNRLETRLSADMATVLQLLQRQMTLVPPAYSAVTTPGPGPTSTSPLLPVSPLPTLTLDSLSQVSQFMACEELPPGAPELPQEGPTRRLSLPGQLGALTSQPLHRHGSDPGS
T1 sequence (P41145 whole entry): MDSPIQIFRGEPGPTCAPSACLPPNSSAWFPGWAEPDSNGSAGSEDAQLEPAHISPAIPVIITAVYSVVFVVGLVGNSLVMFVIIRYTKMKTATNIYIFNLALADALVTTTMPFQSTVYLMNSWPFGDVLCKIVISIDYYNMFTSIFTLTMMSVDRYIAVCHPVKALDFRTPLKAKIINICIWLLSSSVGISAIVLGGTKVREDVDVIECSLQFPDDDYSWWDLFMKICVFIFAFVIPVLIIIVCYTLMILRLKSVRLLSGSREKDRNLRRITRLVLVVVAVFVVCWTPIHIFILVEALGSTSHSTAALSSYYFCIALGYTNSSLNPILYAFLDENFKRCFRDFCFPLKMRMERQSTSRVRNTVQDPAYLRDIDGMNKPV

| Compound | perc_inhibition (% inhibition of the binding of a ligand specific for each target) [1] [%] | perc_inhibition (% inhibition of the binding of a ligand specific for each target) [2] [%] | perc_inhibition: % inhibition of control enzyme activity, COX2(h) [3] [%] | perc_inhibition (% inhibition of the binding of a ligand specific for each target) [4] [%] | perc_inhibition_top_conc [5, 7] [%] | pIC50 [5] | perc_inhibition (% inhibition of the binding of a ligand specific for each target) [6] [%] | off-target activity at KOR receptor, in words ([1]; CEREP panel) | inhibition at 10 µM [1] [%] | inhibition at 10 µM [2] [%] | inhibition at 10 µM [3] [%] | inhibition at 10 µM [4] [%] | perc_inhibition_top_conc ([5]; at top test concentration 30 uM, 30 µM) [%] | inhibition at 30 µM ([5]; human, at top test concentration 30 uM, read-out: perc_inhibition_top_conc) [%] | inhibition at 10 µM [6] [%] |
| --- | --- | --- | --- | --- | --- | --- | --- | --- | --- | --- | --- | --- | --- | --- | --- |
| CC(C)[C@H](Nc1ncnc2[nH]ccc12)c1ccc2c(c1)S(=O)(=O)CCC2 [ASAP-0008674] | 84 | -2 | 23 | 19 | 39.0 | < 4.52 | 12 |  |  |  |  |  |  |  |  |
| CC(C)[C@H](Nc1ncnc2[nH]c(-c3cnn(C)c3C#N)cc12)c1ccc2c(n1)OCCO2 [ASAP-0010715] | 31 | 34 | -2 | 7 |  | 4.96 | 43 |  |  |  |  |  |  |  |  |
| CC(C)[C@@H](Nc1ncnc2[nH]c(-c3cnn(C)c3C#N)cc12)c1ccc2c(n1)OCCO2 [ASAP-0010716] | 56 | 11 | -7 | 8 |  | 5.00 | 22 |  |  |  |  |  |  |  |  |
| CNCc1cc(-c2cc3c(N[C@@H](c4ccc5c(c4)S(=O)(=O)CCC5)C(C)C)ncnc3[nH]2)co1 [ASAP-0011176] | 57 | 50 | 24 | 47 | 26.0 | < 4.52 | 6 |  |  |  |  |  |  |  |  |
| CC(C)C(Nc1ncnc2[nH]c(C(=O)NC3CCN(C)C3)cc12)c1ccc2c(c1)S(=O)(=O)CCC2 (stereo not drawn) [ASAP-0011198] |  |  |  |  |  | < 4.52 |  | moderate | 78 | 38 | 4 | 17 | 23.0 | 18 | 14 |
| Cn1ncc(-c2cc3c(N[C@@H](c4ccc5c(n4)OCCO5)C(C)(C)C)ncnc3[nH]2)c1C#N [ASAP-0011221] | 33 | 54 | -9 | 13 |  | 4.71 | 15 |  |  |  |  |  |  |  |  |
| Cc1nn(C)cc1-c1cc2c(NC(c3ccc4c(c3)S(=O)(=O)CCC4)C(C)C)ncnc2[nH]1 (stereo not drawn) [ASAP-0011446] |  |  |  |  |  |  |  |  | 45 | 8 | 23 | 11 |  |  | 10 |
| C[C@H](C(=O)O)[C@@H](NC(=O)c1ncnc2[nH]ccc12)c1ccc(Br)cc1 [ASAP-0014722] | 2 | -8 | 7 | -1 | 28.0 | < 4.52 | 2 |  |  |  |  |  |  |  |  |
| COc1ccc([C@H](Cc2nnn[nH]2)NC(=O)c2ncnc3[nH]ccc23)cc1 [ASAP-0015381] | 2 | -7 | -1 | -4 | 27.0 | < 4.52 | 5 |  |  |  |  |  |  |  |  |
